Experiment in all cases: relative viability (nuclei count vs DMSO), 5 days (fraction); higher = more cells survive
What all share (details): main component drawn

Compound in assay [1]: CC1=C(N=C(N=C1N)[C@H](CC(=O)N)NC[C@@H](C(=O)N)N)C(=O)N[C@@H]([C@H](C2=CN=CN2)OC3C(C(C(C(O3)CO)O)O)OC4C(C(C(C(O4)CO)O)OC(=O)N)O)C(=O)N[C@H](C)[C@H]([C@H](C)C(=O)N[C@@H]([C@@H](C)O)C(=O)NCCC5=NC(=CS5)C6=NC(=CS6)C(=O)NCCC[S+](C)C)O [Bleomycin] + N=C(N)NC(=N)NCCc1ccccc1 [Phenformin] (partner 250 µM)
The gist of the method: (§1)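 Lung cancer cell lines in 1536-well plates got either a single drug or a fixed anchor-drug dose together with five library-drug doses (not always all listed) in √10 steps, by pin tool, on the day after seeding. Nuclei were counted after 5 days, and relative viability is the treated-to-vehicle ratio of nuclei counts. Values are medians of duplicate plates.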

Compound in assay [2]: CC1=C(N=C(N=C1N)[C@H](CC(=O)N)NC[C@@H](C(=O)N)N)C(=O)N[C@@H]([C@H](C2=CN=CN2)OC3C(C(C(C(O3)CO)O)O)OC4C(C(C(C(O4)CO)O)OC(=O)N)O)C(=O)N[C@H](C)[C@H]([C@H](C)C(=O)N[C@@H]([C@@H](C)O)C(=O)NCCC5=NC(=CS5)C6=NC(=CS6)C(=O)NCCC[S+](C)C)O [Bleomycin] + CC(=O)c1c(C)c2cnc(Nc3ccc(N4CCNCC4)cn3)nc2n(C2CCCC2)c1=O [Palbociclib] (partner 0.5 µM)
The gist of the method:
as §1

Compound in assay [3]: CC1=C(N=C(N=C1N)[C@H](CC(=O)N)NC[C@@H](C(=O)N)N)C(=O)N[C@@H]([C@H](C2=CN=CN2)OC3C(C(C(C(O3)CO)O)O)OC4C(C(C(C(O4)CO)O)OC(=O)N)O)C(=O)N[C@H](C)[C@H]([C@H](C)C(=O)N[C@@H]([C@@H](C)O)C(=O)NCCC5=NC(=CS5)C6=NC(=CS6)C(=O)NCCC[S+](C)C)O [Bleomycin] + Cc1nc(NC(=O)N2CCC[C@H]2C(N)=O)sc1-c1ccnc(C(C)(C)C(F)(F)F)c1 [Alpelisib] (partner 2 µM)
The gist of the method: as §1

Compound in assay [4]: CC1=C(N=C(N=C1N)[C@H](CC(=O)N)NC[C@@H](C(=O)N)N)C(=O)N[C@@H]([C@H](C2=CN=CN2)OC3C(C(C(C(O3)CO)O)O)OC4C(C(C(C(O4)CO)O)OC(=O)N)O)C(=O)N[C@H](C)[C@H]([C@H](C)C(=O)N[C@@H]([C@@H](C)O)C(=O)NCCC5=NC(=CS5)C6=NC(=CS6)C(=O)NCCC[S+](C)C)O [Bleomycin] + CCNC(=O)c1noc(-c2cc(C(C)C)c(O)cc2O)c1-c1ccc(CN2CCOCC2)cc1 [Luminespib] (partner 0.01 µM)
The gist of the method: as §1

With UMC-11, the relative viability in assay [1] (first compound 0.01 µM) stood at 0.311; in assay [1] (first compound 0.03162 µM), 0.335; in assay [1] (first compound 0.1 µM), 0.29; in assay [1] (first compound 0.3162 µM) it was 0.283; in assay [1] (first compound 1 µM), 0.233; in assay [2] (first compound 0.01 µM), 0.311. Also, the relative viability in assay [2] (first compound 0.03162 µM) was found to be 0.334; in assay [2] (first compound 0.1 µM), 0.355; in assay [2] (first compound 0.3162 µM), 0.313; in assay [2] (first compound 1 µM), 0.263; in assay [3] (first compound 0.01 µM) it was 0.873; in assay [3] (first compound 0.03162 µM), 0.935. In addition, the relative viability in assay [3] (first compound 0.1 µM) was 0.826; in assay [3] (first compound 0.3162 µM) it was 0.598; in assay [3] (first compound 1 µM), 0.44; in assay [4] (first compound 0.01 µM), 0.914; in assay [4] (first compound 0.03162 µM) it was 1.05; in assay [4] (first compound 0.1 µM), 0.893. Besides, the relative viability came to 0.65 in assay [4] (first compound 0.3162 µM) and 0.539 in assay [4] (first compound 1 µM).

The record behind these values is the supplement of paper PMC10307832.
